According to publication PMC4742222, “Discovery of Novel Hepatitis C Virus NS5B Polymerase Inhibitors by Combining Random Forest, Multiple e-Pharmacophore Modeling and Docking” (PLoS ONE, 2016):
Read-outs that look alike come from different tables or passages of the source.

Tests used:
NS5B protein = NS5B protein (Hepatitis C virus genotype 1b, UniProt P26663); experiment: biochemical; type: binding; conditions: for Kd: dissociation equilibrium constant, NS5B immobilized on CM5 chip, read-out: SPR on NS5B KD
Method: The SPR experiments were performed using a Biacore T200 optical biosensor (Biacore Life Sciences, GE Healthcare). The NS5B protein at 50 μg/ml prepared in buffer of 10 mM sodium acetate (pH 5.5) was immobilized by standard amine coupling to a CM5 biosensor chip. The compounds were injected for 60 s at a flow rate of 30 μL/min using in concentration series between 1 and 250 μM in running buffer (1 × PBS with 5% DMSO). The dissociation was monitored for 300 s. Raw data collected on an SPR biosensor were further processed to eliminate any artifacts such as nonspecific binding and discrepancies in buffer composition. All data processing and analysis was performed using the Biacore T200 Evaluation Software.

HCV (JFH-1, genotype 2a) [1] = experiment: microbe, parasite or virus in culture; type: cell-based, Hepatitis C virus; conditions: for EC50: luminescence reduced by 50% in Huh7.5.1 cells, mean of three experiments, read-out: Anti-HCV activity virus assay JFH1 EC50; for SI (selective index): ratio of CC50 to EC50
Excerpt: The HCV virus assay was constructed by using the method developed as previously described, albeit with a slight modification. Briefly, the plasmid of pRluc-JFH-1 was constructed as following. Based on the plasmid of pJFH-1, as a gift from Apath,L.L.C., a humanized Renilla luciferase reporter gene was introduced into the C-terminus of NS5A in the JFH-1 genome. The plasmid phRluc-JFH-1 was made via digestion with the XbaI restriction enzyme and used as a template for RNA transcription. The virus transcripts were prepared in vitro by using the Ambion MEGAscript Kits, and then 10 μg of RNA was mixed with […] of Huh7.5.1, which was gifted by Jin Zhong (Institute Pasteur of Shanghai, Chinese Academy of Science), at a concentration of 1×10^7 cells/ml. After electroporation, the Huh7.5.1 cells containing virus transcripts were seeded in a 10-cm dish. After the cells were cultured for 4 days, the supernatant was collected and filtered to obtain the stock solution of the hRluc-JFH-1 virus. To obtain the virus titer, the virus stocks were diluted at a gradient of 1:10, and the Huh7.5.1 cells were incubated for 48h at 37°C. Then, the cells were harvested, and the luminescence was detected via the manufacturer’s protocol of the Renilla-Glo™ Luciferase Assay System (Promega).
Huh7.5.1 cells were seeded in 96-well plates at a density of 2 ×10^4 cells per well at 37°C overnight. All of the synthetic compounds were diluted with DMSO to 10 mM of stock solution. The initial concentration of compounds was 20 μM and then diluted at a gradient of 1:4 to concentrations ranging from 20 μM to 0.02 μM, containing 0.5% DMSO. For the HCVcc system, serial diluted compounds were mixed with a certain titer of HCVcc-hRluc-JFH1 virus, and the final concentration of HCVcc-hRluc-JFH1 virus titer was diluted to the numbers of relative luminescence units (RLU) ranging from 20,000 to 50,000 RLU and then added to the Huh7.5.1 cells. Then, the cells were cultured for 2 days at 37°Cand harvested. The luminescence was detected via the manufacturer’s protocol of the Renilla-Glo™ Luciferase Assay System. EC50 is the concentration of the compound at which the HCV luminescence level in the Huh7.5.1 cells is reduced by 50%. The values of EC50 were plotted by the GraphPad Prism 5 software.

[2] = Cell proliferation assay (WST-1); type: cell-based; conditions: human
Method: (§1) Huh7.5.1 cells were seeded in 96-well plates at a density of 2 × 10^4 cells per well overnight. Cells were incubated with serial diluted compounds for 48 h. The viability of Huh7.5.1 cells was determined in 96-well tissue culture plates using the cell proliferation reagent WST-1 (Roche), and absorbance (OD450 / reference OD630) was measured to detect the cytotoxicity of compounds according to the manufacturer’s protocol for the Cell Proliferation Reagent WST-1. CC50 is the concentration of the compound at which the cell growth was inhibited by 50%. The values of CC50 were plotted by the GraphPad Prism 5 software.

HCV NS5B protein = target: T1, HCV NS5B protein (Hepatitis C virus genotype 1b, UniProt P26663); experiment: biochemical; conditions: for IC50: in vitro enzyme activity, 2'-O-Me-CTP positive control, read-out: NS5B inhibition assay IC50
T1 construct: Purified HCV NS5B protein and HCV (-) 3’ T RNA template were obtained as described previously
Method: The inhibitory effects of the tested reagents on in vitro NS5B activity were determined by NS5B-catalyzed RNA synthesis assay as described previously. Purified HCV NS5B protein and HCV (-) 3’ T RNA template were obtained as described previously. The tested reagents were added at a variety of concentrations in 50 μl reaction mixture consisting of 20 mM HEPES (pH 8.0), 1.5 mM MnCl2, 100 mM ammonium acetate, 1 mM DTT, 500 μM GTP, 250 μM each of CTP, ATP and UTP, 40U of RNasin (Biostar, Canada), 2 μg/ml HCV (-) 3’ TRNA template and 300 ng purified NS5B protein. After 2 h at 30°C, the reaction was stopped by 100 mM EDTA and RNA was purified using the RNaid Kit (Qbiogene). To determine NS5B-catalyzed RNA synthesis, real-time RT-PCR was performed. cDNA was synthesized using AMV-reverse transcriptase (TAKARA, Japan) and the primer targeted to NS5B-catalyzed RNA product (5’-[…]-3’) and then digested with RNAase. PCR was carried out using RNA product–specific primers (forward, […], reverse 5’-[…]-3’, probe, 5’-[…]-3’) and TaqMan RT-PCR Kit according to the instruction. 50% inhibitory concentrations (IC50) were calculated using Statistical SPSS program version 11.5 by probit analysis of regression.

Huh7.5.1 cells = experiment: Cell proliferation assay (WST-1); type: cell-based
Method: as §1

HCV (JFH-1, genotype 2a) [3] = type: cell-based, Hepatitis C virus; conditions: at a concentration of 12.5 μM
NS5B polymerase = conditions: S2 Table, validation set of the RF model; ref DOI in column Reference (DOI); cited from earlier work
[4] = Huh7.5.1 cells, 48 h, WST-1, mean of three experiments, read-out: CC50

T1 sequence (P26663 2420-3010): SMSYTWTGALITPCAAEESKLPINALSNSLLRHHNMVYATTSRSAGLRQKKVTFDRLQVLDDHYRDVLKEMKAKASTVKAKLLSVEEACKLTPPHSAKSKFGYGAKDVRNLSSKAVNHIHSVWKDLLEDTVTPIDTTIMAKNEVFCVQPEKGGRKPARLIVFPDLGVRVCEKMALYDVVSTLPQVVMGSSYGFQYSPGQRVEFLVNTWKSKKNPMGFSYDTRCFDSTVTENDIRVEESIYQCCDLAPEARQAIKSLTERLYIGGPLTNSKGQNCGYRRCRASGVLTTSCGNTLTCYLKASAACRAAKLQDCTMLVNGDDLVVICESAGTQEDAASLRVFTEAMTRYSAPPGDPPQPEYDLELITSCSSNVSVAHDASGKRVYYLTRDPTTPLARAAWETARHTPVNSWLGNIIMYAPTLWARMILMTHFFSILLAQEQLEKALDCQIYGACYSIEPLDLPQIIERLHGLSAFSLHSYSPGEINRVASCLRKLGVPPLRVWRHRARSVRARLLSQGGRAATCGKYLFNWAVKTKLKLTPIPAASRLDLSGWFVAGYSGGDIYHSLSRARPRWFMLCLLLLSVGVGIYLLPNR
Chain of NS5B protein (P26663 2420-3010): as above

| Molecule | Kd (NS5B protein) | EC50 (HCV (JFH-1, genotype 2a) [1]; Hepatitis C virus, Huh-7.5.1) | CC50 at 48 h [2, 4] | IC50 (HCV NS5B protein) | SI (selective index) (HCV (JFH-1, genotype 2a) [1]) | also measured |
| --- | --- | --- | --- | --- | --- | --- |
| COc1cc(C(=O)NNS(=O)(=O)c2ccccc2)cc(OCc2ccccc2)c1OC [N1] | 62.9 µM | > 12.5 µM | > 100 µM | 3.63 µM | – | – |
| O=C(CSc1nc2ccccc2o1)Nc1cc(C(F)(F)F)cc(C(F)(F)F)c1 [N2] | 4.67 µM | 1.61 µM | 51.3 µM | 3 µM | 32.1 | cellular cytotoxicity (Huh7.5.1 cells; at a concentration of 12.5 μM): no cellular cytotoxicity; HCV virus titers suppressed (HCV (JFH-1, genotype 2a) [3]): ~99% |
| Cc1ccc(O)c(NC(=O)COc2ccc3c(=O)c(-c4ccccc4)c(C)oc3c2)c1 [N4] | 123 µM | > 12.5 µM | > 100 µM | 2.01 µM | – | – |
| Cc1ccc(N(Cc2cc3cccc(C)c3nc2O)S(=O)(=O)c2ccccc2)c(C)c1 [N5, N-(2,4-dimethylphenyl)-N-((8-methyl-2-oxo-1,2-dihydroquinolin-3-yl)methyl)benzenesulfonamide] | – | 10.9 µM | > 100 µM | 2.2 µM | – | – |
| CC(C)OC(=O)[C@H](C)N[P@](=O)(OC[C@H]1O[C@@H](n2ccc(=O)[nH]c2=O)[C@](C)(F)[C@@H]1O)Oc1ccccc1 [PSI-7977, sofosbuvir, reference compound] | – | 0.49 µM | > 20 µM | – | >40.82 | – |
| Nc1cc(Cn2c(C(=O)NS(=O)(=O)c3ccc(O)cc3)c(-c3ccc[nH]c3=O)c3cc(Cl)ccc32)ccn1 [compound 137] | – | – | – | – | – | IC50 (NS5B polymerase): > 50 µM |
| CCC[C@H](NC(=O)[C@@H]1[C@H]2CCC[C@H]2CN1C(=O)[C@@H](NC(=O)[C@@H](NC(=O)c1cnccn1)C1CCCCC1)C(C)(C)C)C(=O)C(=O)NC1CC1 [telaprevir, reference compound] | – | 0.02 µM | – | – | >500 | CC50 at 48 h [2]: > 10 µM |
| N-(8-fluoro-4-oxo-1,4-dihydroquinoline-3-carbonyl)-1,2-dimethyl-1H-imidazole-4-sulfonohydrazide [N3] | 86.1 µM | – | – | 23.8 µM | – | pKD (NS5B protein; from SPR KD): 4.06; EC50 (HCV (JFH-1, genotype 2a) [1]): 21.3 µM; CC50 (Huh7.5.1 cells): > 100 µM; pIC50 (HCV NS5B protein; from NS5B inhibition IC50): 4.62 |
